PubChem BioAssay AID1259407 (Chemical Carcinogenesis Research Information System (CCRIS), 2018)
Calls of active or inactive are those of the source. The rule behind the calls is not given here.

System: CCRIS mutagenicity, Ames/micronucleus/aberration tests
Test: CCRIS mutagenicity studies

F
mutagenic call (End Point: IN VIVO MICRONUCLEUS, Test System: BONE MARROW POLYCHROMATIC ERYTHROCYTES, Species: MOUSE, Strain/Sex: DDY/MALE, Route: IP): inactive; negative
mutagenic call (Test System: AMES SALMONELLA TYPHIMURIUM, Strain/Indicator: TA97A, Metabolic Activation: NONE, Method: STANDARD PLATE): inactive; negative
mutagenic call (Test System: AMES SALMONELLA TYPHIMURIUM, Strain/Indicator: TA97A, Metabolic Activation: RAT, LIVER, S-9, AROCLOR 1254, Method: STANDARD PLATE): inactive; negative
mutagenic call (Test System: AMES SALMONELLA TYPHIMURIUM, Strain/Indicator: TA98, Metabolic Activation: HAMSTER, LIVER, S-9, AROCLOR 1254 (10%), Method: PREINCUBATION): inactive; negative
mutagenic call (Test System: AMES SALMONELLA TYPHIMURIUM, Strain/Indicator: TA98, Metabolic Activation: NONE, Method: FLUCTUATION TEST): inactive; negative
mutagenic call (Test System: AMES SALMONELLA TYPHIMURIUM, Strain/Indicator: TA98, Metabolic Activation: NONE, Method: PREINCUBATION): inactive; negative
mutagenic call (Test System: AMES SALMONELLA TYPHIMURIUM, Strain/Indicator: TA98, Metabolic Activation: NONE, Method: STANDARD PLATE): inactive; negative
mutagenic call (Test System: AMES SALMONELLA TYPHIMURIUM, Strain/Indicator: TA98, Metabolic Activation: RAT, LIVER, S-9, AROCLOR 1254 (10%), Method: PREINCUBATION): inactive; negative
mutagenic call (Test System: AMES SALMONELLA TYPHIMURIUM, Strain/Indicator: TA98, Metabolic Activation: RAT, LIVER, S-9, AROCLOR 1254, Method: STANDARD PLATE): inactive; negative
mutagenic call (Test System: AMES SALMONELLA TYPHIMURIUM, Strain/Indicator: TA98, Metabolic Activation: RAT, LIVER, S-9, AROCLOR, Method: PREINCUBATION): inactive; negative
mutagenic call (Test System: AMES SALMONELLA TYPHIMURIUM, Strain/Indicator: TA98, Metabolic Activation: RAT, LIVER, S-9, PCB, Method: FLUCTUATION TEST): inactive; negative
mutagenic call (Test System: AMES SALMONELLA TYPHIMURIUM, Strain/Indicator: TA98, Metabolic Activation: RAT, LIVER, S-9, PCB, Method: STANDARD PLATE): inactive; negative
mutagenic call (Test System: AMES SALMONELLA TYPHIMURIUM, Strain/Indicator: TA98, Metabolic Activation: RAT, LIVER, S-9, PHENOBARBITAL, Method: STANDARD PLATE): inactive; negative
mutagenic call (Test System: AMES SALMONELLA TYPHIMURIUM, Strain/Indicator: TA100, Metabolic Activation: HAMSTER, LIVER, S-9, AROCLOR 1254 (10%), Method: PREINCUBATION): inactive; negative
mutagenic call (Test System: AMES SALMONELLA TYPHIMURIUM, Strain/Indicator: TA100, Metabolic Activation: NONE, Method: FLUCTUATION TEST): inactive; negative
mutagenic call (Test System: AMES SALMONELLA TYPHIMURIUM, Strain/Indicator: TA100, Metabolic Activation: NONE, Method: PREINCUBATION): inactive; negative
mutagenic call (Test System: AMES SALMONELLA TYPHIMURIUM, Strain/Indicator: TA100, Metabolic Activation: NONE, Method: STANDARD PLATE): inactive; negative
mutagenic call (Test System: AMES SALMONELLA TYPHIMURIUM, Strain/Indicator: TA100, Metabolic Activation: RAT, LIVER, S-9, AROCLOR 1254 (10%), Method: PREINCUBATION): inactive; negative
mutagenic call (Test System: AMES SALMONELLA TYPHIMURIUM, Strain/Indicator: TA100, Metabolic Activation: RAT, LIVER, S-9, AROCLOR 1254, Method: STANDARD PLATE): inactive; negative
mutagenic call (Test System: AMES SALMONELLA TYPHIMURIUM, Strain/Indicator: TA100, Metabolic Activation: RAT, LIVER, S-9, AROCLOR, Method: PREINCUBATION): inactive; negative
mutagenic call (Test System: AMES SALMONELLA TYPHIMURIUM, Strain/Indicator: TA100, Metabolic Activation: RAT, LIVER, S-9, PCB, Method: FLUCTUATION TEST): inactive; negative
mutagenic call (Test System: AMES SALMONELLA TYPHIMURIUM, Strain/Indicator: TA100, Metabolic Activation: RAT, LIVER, S-9, PCB, Method: STANDARD PLATE): inactive; negative
mutagenic call (Test System: AMES SALMONELLA TYPHIMURIUM, Strain/Indicator: TA100, Metabolic Activation: RAT, LIVER, S-9, PHENOBARBITAL, Method: STANDARD PLATE): inactive; negative
mutagenic call (Test System: AMES SALMONELLA TYPHIMURIUM, Strain/Indicator: TA102, Metabolic Activation: NONE, Method: STANDARD PLATE): inactive; negative
mutagenic call (Test System: AMES SALMONELLA TYPHIMURIUM, Strain/Indicator: TA102, Metabolic Activation: RAT, LIVER, S-9, AROCLOR 1254, Method: STANDARD PLATE): inactive; negative
mutagenic call (Test System: AMES SALMONELLA TYPHIMURIUM, Strain/Indicator: TA1535, Metabolic Activation: HAMSTER, LIVER, S-9, AROCLOR 1254 (10%), Method: PREINCUBATION): inactive; negative
mutagenic call (Test System: AMES SALMONELLA TYPHIMURIUM, Strain/Indicator: TA1535, Metabolic Activation: NONE, Method: PREINCUBATION): inactive; negative
mutagenic call (Test System: AMES SALMONELLA TYPHIMURIUM, Strain/Indicator: TA1535, Metabolic Activation: NONE, Method: STANDARD PLATE): inactive; negative
mutagenic call (Test System: AMES SALMONELLA TYPHIMURIUM, Strain/Indicator: TA1535, Metabolic Activation: RAT, LIVER, S-9, AROCLOR 1254 (10%), Method: PREINCUBATION): inactive; negative
mutagenic call (Test System: AMES SALMONELLA TYPHIMURIUM, Strain/Indicator: TA1535, Metabolic Activation: RAT, LIVER, S-9, AROCLOR 1254, Method: STANDARD PLATE): inactive; negative
mutagenic call (Test System: AMES SALMONELLA TYPHIMURIUM, Strain/Indicator: TA1535, Metabolic Activation: RAT, LIVER, S-9, AROCLOR, Method: PREINCUBATION): inactive; negative
mutagenic call (Test System: AMES SALMONELLA TYPHIMURIUM, Strain/Indicator: TA1537, Metabolic Activation: HAMSTER, LIVER, S-9, AROCLOR 1254 (10%), Method: PREINCUBATION): inactive; negative
mutagenic call (Test System: AMES SALMONELLA TYPHIMURIUM, Strain/Indicator: TA1537, Metabolic Activation: NONE, Method: PREINCUBATION): inactive; negative
mutagenic call (Test System: AMES SALMONELLA TYPHIMURIUM, Strain/Indicator: TA1537, Metabolic Activation: RAT, LIVER, S-9, AROCLOR 1254 (10%), Method: PREINCUBATION): inactive; negative
mutagenic call (Test System: AMES SALMONELLA TYPHIMURIUM, Strain/Indicator: TA1537, Metabolic Activation: RAT, LIVER, S-9, AROCLOR, Method: PREINCUBATION): inactive; negative
mutagenic call (Test System: AMES SALMONELLA TYPHIMURIUM, Strain/Indicator: TA1538, Metabolic Activation: NONE, Method: PREINCUBATION): inactive; negative
mutagenic call (Test System: AMES SALMONELLA TYPHIMURIUM, Strain/Indicator: TA1538, Metabolic Activation: RAT, LIVER, S-9, AROCLOR, Method: PREINCUBATION): inactive; negative
mutagenic call (Test System: CHINESE HAMSTER OVARY, Strain/Indicator: CHO-K1-BH4 (HGPRT), Metabolic Activation: NONE, Method: SUSPENSION/PLATE): inactive; negative
mutagenic call (Test System: CHINESE HAMSTER OVARY, Strain/Indicator: CHO-K1-BH4 (HGPRT), Metabolic Activation: RAT, LIVER, S-9, AROCLOR, Method: SUSPENSION/PLATE): inactive; negative
mutagenic call (Test System: CHINESE HAMSTER V-79, Strain/Indicator: V-79 (HGPRT)/6-THIOGUANINE, Metabolic Activation: NONE): inactive; negative
mutagenic call (Test System: CHINESE HAMSTER V-79, Strain/Indicator: V-79/6-THIOGUANINE, Metabolic Activation: NONE): inactive; negative
mutagenic call (Test System: E.COLI, Strain/Indicator: WP2 UVRA, Metabolic Activation: NONE, Method: FLUCTUATION TEST): inactive; negative
mutagenic call (Test System: E.COLI, Strain/Indicator: WP2 UVRA, Metabolic Activation: RAT, LIVER, S-9, PCB, Method: FLUCTUATION TEST): inactive; negative
mutagenic call (Test System: MOUSE LYMPHOMA, Strain/Indicator: L5178Y (TK+/TK-), Metabolic Activation: NONE, Method: SUSPENSION/PLATE): active; positive
mutagenic call (Test System: MOUSE LYMPHOMA, Strain/Indicator: L5178Y (TK+/TK-), Metabolic Activation: RAT, LIVER, S-9, AROCLOR 1254, Method: SUSPENSION/PLATE): active; positive
